Results published in ChEMBL document CHEMBL1909046, “DrugMatrix in vitro pharmacology data”.

Assays:
[1] = target: T1, Calcitonin receptor (Homo sapiens, UniProt P30988); type: cell membranes, Membrane; conditions: t47d; also: in other assays of this panel Not Active means under 50% inhibition at 10 µM
T1 sequence (P30988 whole entry): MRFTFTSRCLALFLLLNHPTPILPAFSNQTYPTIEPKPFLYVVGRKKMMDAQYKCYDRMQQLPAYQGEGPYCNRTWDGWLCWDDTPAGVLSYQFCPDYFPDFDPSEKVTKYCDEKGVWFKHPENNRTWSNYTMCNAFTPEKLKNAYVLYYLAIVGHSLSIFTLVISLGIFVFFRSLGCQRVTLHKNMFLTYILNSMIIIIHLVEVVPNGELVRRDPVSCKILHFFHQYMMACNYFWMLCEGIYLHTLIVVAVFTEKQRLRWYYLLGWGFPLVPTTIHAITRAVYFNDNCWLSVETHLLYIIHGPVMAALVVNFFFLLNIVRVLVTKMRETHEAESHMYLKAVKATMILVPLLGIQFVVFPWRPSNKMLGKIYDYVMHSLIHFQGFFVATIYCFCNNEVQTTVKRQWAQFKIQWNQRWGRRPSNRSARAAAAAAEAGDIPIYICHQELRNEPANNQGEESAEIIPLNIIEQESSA

[2] = DRUGMATRIX: GABAA, Flunitrazepam, Central radioligand binding (ligand: [3H] Flunitrazepam); type: cell membranes, Rattus norvegicus, Wistar, Brain, Membrane; conditions: Not Active = under 50% inhibition at 10 µM
[3] = target: T2, C-X-C chemokine receptor type 1 (Homo sapiens, UniProt P25024); also: in other assays of this panel Not Active means under 50% inhibition at 10 µM
T2 sequence (P25024 whole entry): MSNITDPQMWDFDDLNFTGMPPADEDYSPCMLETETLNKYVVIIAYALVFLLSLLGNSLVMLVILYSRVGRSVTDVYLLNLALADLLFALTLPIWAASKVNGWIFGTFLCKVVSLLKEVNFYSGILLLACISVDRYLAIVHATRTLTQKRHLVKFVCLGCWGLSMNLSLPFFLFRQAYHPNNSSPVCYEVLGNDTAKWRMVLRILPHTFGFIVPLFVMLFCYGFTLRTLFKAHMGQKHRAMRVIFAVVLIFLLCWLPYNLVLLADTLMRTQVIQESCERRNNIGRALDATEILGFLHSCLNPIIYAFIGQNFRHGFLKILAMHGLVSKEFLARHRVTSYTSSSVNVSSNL

[4] = target: T3, Adenosine receptor A1 (Homo sapiens, UniProt P30542); type: cell membranes, Membrane; conditions: cho;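 also: radioligand binding assay at the adenosine A1 receptor, with DPCPX serving as the labelled ligand; in other assays of this panel Not Active means under 50% inhibition at 10 µM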
T3 sequence (P30542 whole entry): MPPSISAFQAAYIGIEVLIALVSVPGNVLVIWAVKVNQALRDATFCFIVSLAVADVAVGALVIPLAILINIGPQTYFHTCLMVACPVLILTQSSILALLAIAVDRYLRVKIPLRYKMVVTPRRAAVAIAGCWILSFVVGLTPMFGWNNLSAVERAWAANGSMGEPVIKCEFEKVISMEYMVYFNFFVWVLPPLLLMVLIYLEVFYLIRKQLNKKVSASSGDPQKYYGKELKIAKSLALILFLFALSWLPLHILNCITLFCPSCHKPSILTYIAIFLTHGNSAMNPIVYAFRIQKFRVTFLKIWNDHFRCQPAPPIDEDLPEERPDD

[5] = target: Beta-2 adrenergic receptor (Homo sapiens, UniProt P07550); test: DRUGMATRIX: Adrenergic beta2 radioligand binding (ligand: [3H] CGP-12177); type: cell membranes, Membrane; conditions: cho; Not Active = under 50% inhibition at 10 µM
[6] = target: Vascular endothelial growth factor receptor 1 (Homo sapiens, UniProt P17948); type: cell-based; conditions: huvec; also: in other assays of this panel Not Active means under 50% inhibition at 10 µM
[7] = DRUGMATRIX: Glutamate, NMDA, Phencyclidine radioligand binding (ligand: [3H] TCP); type: cell membranes, Rattus norvegicus, Wistar, Cerebral cortex, Membrane; conditions: Not Active = under 50% inhibition at 10 µM
[8] = DRUGMATRIX: Calcium Channel Type L, Benzothiazepine radioligand binding (ligand: [3H] Diltiazem); type: cell membranes, Rattus norvegicus, Wistar, Brain, Membrane; conditions: Not Active = under 50% inhibition at 10 µM

Sequence of Vascular endothelial growth factor receptor 1 (P17948 whole entry): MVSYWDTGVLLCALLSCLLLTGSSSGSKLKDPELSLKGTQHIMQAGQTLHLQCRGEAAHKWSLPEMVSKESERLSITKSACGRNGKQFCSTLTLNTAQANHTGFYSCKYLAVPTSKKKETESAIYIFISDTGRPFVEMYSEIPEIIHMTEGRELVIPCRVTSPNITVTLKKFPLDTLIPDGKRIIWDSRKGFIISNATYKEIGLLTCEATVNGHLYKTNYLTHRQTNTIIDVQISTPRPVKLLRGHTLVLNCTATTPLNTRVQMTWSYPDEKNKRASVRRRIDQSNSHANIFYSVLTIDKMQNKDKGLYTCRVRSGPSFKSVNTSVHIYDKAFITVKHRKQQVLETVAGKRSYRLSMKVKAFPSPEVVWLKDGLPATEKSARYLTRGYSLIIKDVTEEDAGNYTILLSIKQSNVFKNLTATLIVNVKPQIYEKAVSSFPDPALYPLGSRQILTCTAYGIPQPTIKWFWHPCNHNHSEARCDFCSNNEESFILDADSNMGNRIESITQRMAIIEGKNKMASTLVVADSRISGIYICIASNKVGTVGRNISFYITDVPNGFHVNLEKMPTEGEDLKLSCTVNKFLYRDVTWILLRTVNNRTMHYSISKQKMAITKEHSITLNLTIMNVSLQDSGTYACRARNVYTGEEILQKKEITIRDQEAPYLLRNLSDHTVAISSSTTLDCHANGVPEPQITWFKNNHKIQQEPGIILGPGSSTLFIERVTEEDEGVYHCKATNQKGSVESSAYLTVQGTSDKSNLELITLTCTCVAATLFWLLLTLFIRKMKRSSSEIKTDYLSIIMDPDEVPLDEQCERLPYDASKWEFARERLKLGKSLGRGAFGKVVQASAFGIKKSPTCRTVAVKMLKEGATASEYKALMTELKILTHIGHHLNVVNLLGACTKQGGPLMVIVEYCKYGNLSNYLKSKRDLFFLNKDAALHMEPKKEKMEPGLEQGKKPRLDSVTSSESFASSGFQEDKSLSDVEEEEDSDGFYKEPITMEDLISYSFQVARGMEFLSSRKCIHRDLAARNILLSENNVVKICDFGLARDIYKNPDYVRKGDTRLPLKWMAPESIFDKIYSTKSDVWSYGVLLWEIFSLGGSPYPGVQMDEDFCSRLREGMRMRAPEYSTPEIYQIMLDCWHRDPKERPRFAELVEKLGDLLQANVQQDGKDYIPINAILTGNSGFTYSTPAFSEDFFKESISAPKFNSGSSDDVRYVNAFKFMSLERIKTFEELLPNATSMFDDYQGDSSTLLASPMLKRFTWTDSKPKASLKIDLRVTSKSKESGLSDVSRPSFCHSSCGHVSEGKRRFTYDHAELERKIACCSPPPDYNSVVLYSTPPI
Sequence of Beta-2 adrenergic receptor (P07550 whole entry): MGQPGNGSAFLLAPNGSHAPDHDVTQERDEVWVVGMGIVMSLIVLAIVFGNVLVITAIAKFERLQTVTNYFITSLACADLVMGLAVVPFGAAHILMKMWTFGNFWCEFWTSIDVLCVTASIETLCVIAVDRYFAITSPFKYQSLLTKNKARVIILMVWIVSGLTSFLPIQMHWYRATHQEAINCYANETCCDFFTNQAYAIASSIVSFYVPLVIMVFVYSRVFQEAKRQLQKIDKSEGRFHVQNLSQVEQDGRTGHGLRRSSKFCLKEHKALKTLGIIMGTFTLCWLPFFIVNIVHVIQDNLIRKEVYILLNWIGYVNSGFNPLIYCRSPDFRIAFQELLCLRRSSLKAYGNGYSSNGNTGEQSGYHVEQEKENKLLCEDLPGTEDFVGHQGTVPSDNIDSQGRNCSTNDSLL

Row | SMILES | IC50 [1] | IC50 [2] | Ki [2] | IC50 [3] | IC50 [4] | IC50 [5] | IC50 [6] | IC50 [7] | Ki [7] | IC50 [8] | Ki [8] | IC50 ([8]; read-out: IC50) [µM] | Ki ([8]; read-out: Ki) [µM]
1 | CCc1c2c(nc3ccc(OC(=O)N4CCC(N5CCCCC5)CC4)cc13)-c1cc3c(c(=O)n1C2)COC(=O)[C@]3(O)CC [IRINOTECAN] | Not Active | Not Active | Not Active | Not Active | Not Active | Not Active | Not Active | Not Active | Not Active | Not Active | Not Active | – | –
2 | CCCN(CCC)C(=O)C(CCC(=O)O)NC(=O)c1ccccc1 (stereo unspecified) [PROGLUMIDE] | Not Active | Not Active | Not Active | Not Active | Not Active | Not Active | Not Active | Not Active | Not Active | Not Active | Not Active | – | –
3 | CCCC(CCC)C(=O)O [VALPROIC ACID] | Not Active | Not Active | Not Active | Not Active | Not Active | Not Active | Not Active | Not Active | Not Active | Not Active | Not Active | – | –
4 | Cc1ccccc1C(=O)N1CCC(Cc2ccccc2)CC1 | Not Active | Not Active | Not Active | Not Active | Not Active | Not Active | Not Active | Not Active | Not Active | Not Active | Not Active | – | –
5 | OC(CCN1CCCCC1)(c1ccccc1)C1CCCCC1 (stereo unspecified) [TRIHEXYPHENIDYL] | Not Active | Not Active | Not Active | Not Active | Not Active | Not Active | Not Active | Not Active | Not Active | – | – | 4.81 | 4.28
6 | Cc1ccc(S(=O)(=O)NC(=O)NN2CC3CCCC3C2)cc1 (stereo unspecified) [GLICLAZIDE] | Not Active | Not Active | Not Active | Not Active | Not Active | Not Active | Not Active | Not Active | Not Active | Not Active | Not Active | – | –
7 | N=C(N)NC(=O)c1nc(Cl)c(N)nc1N [AMILORIDE] | Not Active | Not Active | Not Active | Not Active | Not Active | Not Active | Not Active | Not Active | Not Active | Not Active | Not Active | – | –
8 | CC(C)(Oc1ccc(C2CCCc3ccccc32)cc1)C(=O)O (stereo unspecified) [NAFENOPIN] | Not Active | Not Active | Not Active | Not Active | Not Active | Not Active | Not Active | Not Active | Not Active | Not Active | Not Active | – | –
9 | Cc1cc2cc3c(C)cc(=O)oc3c(C)c2o1 [TRIOXSALEN] | Not Active | Not Active | Not Active | Not Active | Not Active | Not Active | Not Active | Not Active | Not Active | Not Active | Not Active | – | –
10 | Oc1ccc(OCc2ccccc2)cc1 [MONOBENZONE] | Not Active | Not Active | Not Active | Not Active | Not Active | Not Active | Not Active | Not Active | Not Active | Not Active | Not Active | – | –
11 | O=C1CC2(CCCC2)CC(=O)N1CCCCN1CCN(c2ncccn2)CC1 [BUSPIRONE] | Not Active | Not Active | Not Active | Not Active | Not Active | Not Active | Not Active | Not Active | Not Active | Not Active | Not Active | – | –
